# Laboratory results published in patent publication US8658661B2, “Oxadiazole inhibitors of leukotriene production” (Boehringer Ingelheim International GmbH, priority 2010, dated 2014).
# Assays:
# [1] = tested on: synthesis of LTB4 in human whole blood; assay: Human whole blood assay (inhibition of LTB4 synthesis, calcimycin stimulated); type: cell-based; conditions: heparinized human whole blood, calcimycin 20 μM, plasma LTB4
# Outline: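 Readout: plasma LTB4 by antibody-based HTRF. Compound added to heparinized human whole blood, 15 min 37° C; calcimycin 20 μM final (PBS pH 7.4), 30 min 37° C; spun 1500×g 5 min, plasma taken.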
# [2] = molecular target: T1, recombinant human FLAP protein (Homo sapiens, UniProt P20292); assay: FLAP binding assay (SPA, displacement of [125I]L-691,831); conditions: membranes of sf9 cells expressing recombinant human FLAP; [125I]L-691,831 probe; read-out: FLAP binding IC50
# T1 construct: made in house; host or cells: Sf9 insect cells (100,000×g membrane pellet used)
# T1 sequence (P20292 1-161): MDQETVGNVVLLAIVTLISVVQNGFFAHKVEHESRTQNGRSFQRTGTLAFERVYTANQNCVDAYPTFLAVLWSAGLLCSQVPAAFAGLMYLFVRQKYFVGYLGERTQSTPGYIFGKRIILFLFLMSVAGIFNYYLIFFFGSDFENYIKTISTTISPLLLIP
# Outline: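 Membranes from sf9 cells expressing human FLAP in pH 7.5 Tris buffer (MgCl2, EDTA, PMSF). Non-specific binding defined with 10 μM cold L-691,831.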
SMILES,IC50 [1] [nM],IC50 [2] [nM]
"CC(C)C(C)(c1ccc(-c2cnc(N)nc2)cc1)c1noc(-c2cnn(CCN3CCOCC3)c2)n1 (centres unmarked) [Example 144, 5-{4-[3-methyl-2-(5-{1-[2-(morpholin-4-yl)ethyl]-1H-pyrazol-4-yl}-1,2,4-oxadiazol-3-yl)butan-2-yl]phenyl}pyrimidin-2-amine]",26,3.1
"CC(C)[C@@](C)(c1ccc(-c2cnc(N)nc2)cc1)c1noc(-c2cnn(CC(C)(C)O)c2)n1 [Example 108, 1-[4-(3-{(2S)-2-[4-(2-aminopyrimidin-5-yl)phenyl]-3-methylbutan-2-yl}-1,2,4-oxadiazol-5-yl)-1H-pyrazol-1-yl]-2-methylpropan-2-ol]",320,8.7
"COCCNc1cnc(-c2nc(C(C)(c3ccc(-c4cnc(N)nc4)cc3)C3CC3)no2)cn1 (centres unmarked) [Example 42, 5-{4-[1-cyclopropyl-1-(5-{5-[(2-methoxyethyl)amino]pyrazin-2-yl}-1,2,4-oxadiazol-3-yl)ethyl]phenyl}pyrimidin-2-amine]",25,1.5
"CC(C)[C@](C)(c1ccc(-c2cnc(N)nc2)cc1)c1noc(-c2ccn[nH]2)n1 [Example 23, 5-(4-{(2R)-3-methyl-2-[5-(1H-pyrazol-5-yl)-1,2,4-oxadiazol-3-yl]butan-2-yl}phenyl)pyrimidin-2-amine]",170,6.9
"COc1cncc(-c2nc(C(C)(c3ccc(-c4cnc(N)nc4)cc3)C(C)C)no2)c1 (centres unmarked) [Example 13, 5-(4-{2-[5-(5-methoxypyridin-3-yl)-1,2,4-oxadiazol-3-yl]-3-methylbutan-2-yl}phenyl)pyrimidin-2-amine]",460,3.6
"CC(C)(O)CNc1cnc(-c2nc(C(C)(c3ccc(-c4cnc(N)nc4)cc3)C3CCC3)no2)cn1 (centres unmarked) [Example 35, 1-{[5-(3-{1-[4-(2-aminopyrimidin-5-yl)phenyl]-1-cyclobutylethyl}-1,2,4-oxadiazol-5-yl)pyrazin-2-yl]amino}-2-methylpropan-2-ol]",360,3.2
"Cc1n[nH]c(C)c1-c1nc(C(C)(c2ccc(-c3cnc(N)nc3)cc2)C(C)C)no1 (centres unmarked) [Example 133, 5-(4-{2-[5-(3,5-dimethyl-1H-pyrazol-4-yl)-1,2,4-oxadiazol-3-yl]-3-methylbutan-2-yl}phenyl)pyrimidin-2-amine]",190,1.6
"CC(C)N1CCN(c2nc(C(C)(c3ccc(-c4cnc(N)nc4)cc3)C(C)C)no2)CC1 (centres unmarked) [Example 264, 5-(4-{1-[5-(4-Isopropyl-piperazin-1-yl)-[1,2,4]oxadiazol-3-yl]-1,2-dimethyl-propyl}-phenyl)-pyrimidin-2-ylamine]",120,11
"CN(C)C(=O)Cn1cc(-c2nc([C@@](C)(c3ccc(-c4ccc(N)nc4)cc3)C3CC3)no2)cn1 [Example 172, 2-[4-(3-{(R)-1-[4-(6-Amino-pyridin-3-yl)-phenyl]-1-cyclopropyl-ethyl}-[1,2,4]oxadiazol-5-yl)-pyrazol-1-yl]-N,N-dimethyl-acetamide]",66,1.1
"CC(C)(CO)Nc1cnc(-c2nc([C@@](C)(c3ccc(-c4cnc(N)nc4)cc3)C3CC3)no2)cn1 (single isomer, unassigned) [Example 56]",79,2.4
"CC(C)C(C)(c1ccc(-c2cnc(N)nc2)cc1)c1noc(-c2ccc[nH]c2=O)n1 (centres unmarked) [Example 12, 3-(3-{2-[4-(2-aminopyrimidin-5-yl)phenyl]-3-methylbutan-2-yl}-1,2,4-oxadiazol-5-yl)pyridin-2(1H)-one]",290,3.3
"CN(C)C(=O)Cn1cc(-c2nc(C(C)(c3ccc(-c4ncc(N)nc4C#N)cc3)C3CC3)no2)cn1 (centres unmarked) [Example 295, 2-[4-(3-{1-[4-(5-Amino-3-cyano-pyrazin-2-yl)-phenyl]-1-cyclopropyl-ethyl}-[1,2,4]oxadiazol-5-yl)-pyrazol-1-yl]-N,N-dimethyl-acetamide]",150,7.5
"C[C@](c1ccc(-c2ccc(N)nc2)cc1)(c1noc(-c2cnc(N3CCNCC3)cn2)n1)C1CC1 [Example 268, 5-(4-{(S)-1-Cyclopropyl-1-[5-(3,4,5,6-tetrahydro-2H-[1,2′]bipyrazinyl-5′-yl)-[1,2,4]oxadiazol-3-yl]-ethyl}-phenyl)-pyridin-2-ylamine]",600,9.3
"CC(C)C(C)(c1ccc(-c2cnc(N)nc2)cc1)c1noc(C2CCCN(C(=O)OC(C)(C)C)C2)n1 (centres unmarked) [Example 111, tert-butyl 3-(3-{2-[4-(2-aminopyrimidin-5-yl)phenyl]-3-methylbutan-2-yl}-1,2,4-oxadiazol-5-yl)piperidine-1-carboxylate]",2900,15
"CC(C)C(C)(c1ccc(-c2cnc(N)nc2)cc1)c1noc(N2CCN(CC(=O)N(C)C)CC2)n1 (centres unmarked) [Example 193, 2-[4-(3-{1-[4-(2-Amino-pyrimidin-5-yl)-phenyl]-1,2-dimethyl-propyl}-[1,2,4]oxadiazol-5-yl)-piperazin-1-yl]-N,N-dimethyl-acetamide]",230,18
"Cn1nccc1-c1nc(C(C)(c2ccc(-c3cnc(N)nc3)cc2)C2CC2)no1 (centres unmarked) [Example 27, 5-(4-{1-cyclopropyl-1-[5-(1-methyl-1H-pyrazol-5-yl)-1,2,4-oxadiazol-3-yl]ethyl}phenyl)pyrimidin-2-amine]",330,12
"CN(C)C(=O)Cn1cc(-c2nc(C(C)(c3ccc(-c4cnc(N)nc4)cc3)C3CCC3)no2)cn1 (centres unmarked) [Example 97, 2-[4-(3-{1-[4-(2-aminopyrimidin-5-yl)phenyl]-1-cyclobutylethyl}-1,2,4-oxadiazol-5-yl)-1H-pyrazol-1-yl]-N,N-dimethylacetamide]",170,8.8
"Cc1nc(-c2ccc([C@](C)(c3noc(-c4cnn(CC(=O)N(C)C)c4)n3)C3CC3)cc2)cnc1N [Example 177, 2-[4-(3-{(R)-1-[4-(5-Amino-6-methyl-pyrazin-2-yl)-phenyl]-1-cyclopropyl-ethyl}-[1,2,4]oxadiazol-5-yl)-pyrazol-1-yl]-N,N-dimethyl-acetamide]",66,8.9
"CNC(=O)Cn1cc(-c2nc(C(C)(C)c3ccc(-c4cnc(N)nc4)cc3)no2)cn1 [Example 79, 2-[4-(3-{2-[4-(2-aminopyrimidin-5-yl)phenyl]propan-2-yl}-1,2,4-oxadiazol-5-yl)-1H-pyrazol-1-yl]-N-methylacetamide]",2200,150
"CC(C)C(C)(c1ccc(-c2cnc(N)nc2)cc1)c1noc(CC(C)(C)C(=O)O)n1 (centres unmarked) [Example 93, 3-(3-{2-[4-(2-aminopyrimidin-5-yl)phenyl]-3-methylbutan-2-yl}-1,2,4-oxadiazol-5-yl)-2,2-dimethylpropanoic acid]",> 5000,240
"Cc1nc(N)cnc1-c1ccc([C@](C)(c2noc(-c3cnn(CC(=O)N(C)C)c3)n2)C2CC2)cc1 [Example 285, 2-[4-(3-{(R)-1-[4-(5-Amino-3-methyl-pyrazin-2-yl)-phenyl]-1-cyclopropyl-ethyl}-[1,2,4]oxadiazol-5-yl)-pyrazol-1-yl]-N,N-dimethyl-acetamide]",190,7
"CC(c1ccc(-c2cnc(N)nc2)cc1)(c1noc(-c2cnn(C3COC3)c2)n1)C1CC1 (centres unmarked) [Example 43, 5-[4-(1-cyclopropyl-1-{5-[1-(oxetan-3-yl)-1H-pyrazol-4-yl]-1,2,4-oxadiazol-3-yl}ethyl)phenyl]pyrimidin-2-amine]",30,2.5
"CC(C)C(C)(c1ccc(-c2cnc(N)nc2)cc1)c1noc(N2CCN(C(N)=O)CC2)n1 (centres unmarked) [Example 192, 4-(3-{1-[4-(2-Amino-pyrimidin-5-yl)-phenyl]-1,2-dimethyl-propyl} [1,2,4]oxadiazol-5-yl)-piperazine-1-carboxylic acid amide]",740,23
"CC1(O)CCN(c2nc(C(C)(c3ccc(-c4cnc(N)nc4)cc3)C3CC3)no2)CC1 (centres unmarked) [Example 238, 1-(3-{1-[4-(2-Amino-pyrimidin-5-yl)-phenyl]-1-cyclopropyl-ethyl}-[1,2,4]oxadiazol-5-yl)-4-methyl-piperidin-4-ol]",29,5
"Cn1cc(-c2nc(C(C)(c3ccc(-c4cnc5[nH]ccc5c4)cc3)C3CC3)no2)cn1 (centres unmarked) [Example 253, 5-(4-{1-Cyclopropyl-1-[5-(1-methyl-1H-pyrazol-4-yl)-[1,2,4]oxadiazol-3-yl]-ethyl}-phenyl)-1H-pyrrolo[2,3-b]pyridine]",120,3.8
"CC(C)C(C)(c1ccc(-c2cnc(N)nc2)cc1)c1noc(-c2cnn(C)c2)n1 (centres unmarked) [Example 15, 5-(4-{3-methyl-2-[5-(1-methyl-1H-pyrazol-4-yl)-1,2,4-oxadiazol-3-yl]butan-2-yl}1phenyl)pyrimidin-2-amine]",46,2
"CC(C)C(C)(c1ccc(-c2cnc(N)nc2)cc1)c1noc(-c2cncs2)n1 (centres unmarked) [Example 130, 5-(4-{3-methyl-2-[5-(1,3-thiazol-5-yl)-1,2,4-oxadiazol-3-yl]butan-2-yl}phenyl)pyrimidin-2-amine]",180,1.4
"CC(C)(c1ccc(-c2cnc(N)nc2)cc1)c1noc(-c2ccc(NCCS(C)(=O)=O)nc2)n1 [Example 71, 5-(4-{2-[5-(6-{[2-(methylsulfonyl)ethyl]amino}pyridin-3-yl)-1,2,4-oxadiazol-3-yl]propan-2-yl}phenyl)pyrimidin-2-amine]",900,17
